In patent US8546391B2, “Thiadiazole and oxadiazole derivatives, preparation thereof and therapeutic use thereof” (Sanofi, priority 2009, dated 2013):

Legend:
[1] = tested on: triglyceride biosynthesis; test: in vitro inhibitory activity on triglyceride biosynthesis, cell test ([14C] glycerol incorporation in Chang liver cells); assay type: cell-based; conditions: compounds incubated 30 minutes, then [14C] glycerol incorporation for 6 hours, read-out: inhibitory activity on triglyceride biosynthesis, concentration that inhibits 50% of the activity
Protocol: These trials consisted in measuring the in vitro inhibitory activity of the compounds of the invention on a cell test.
Chang liver cells at 80% confluence are detached with trypsin-EDTA, 4 ml per 175 cm^2 flask. After centrifugation at 1300×g for 5 minutes, the cell pellet is washed once with PBS and then resuspended in whole medium. The number of cells and their viability are determined on Mallassez cells via the exclusion method with trypan blue.
150 000 cells are inoculated per well into a 24-well plate for a minimum of 3 hours in DMEM medium 4.5 g/l of glucose supplemented with 10% FCS and with antibiotics, and are maintained at 37° C. in an incubator with CO2 (5%).
After 3 hours, the cells have adhered, the medium is removed and replaced overnight with DMEM medium 4.5 g/l of glucose with 2% of BSA/oleate.
After culturing for 18 hours without serum, the test compounds are incubated for 30 minutes ([…], 30, 100, 300 and 1000 nM) with the cells, followed by addition of [^14C] glycerol (0.4 μCi/ml/well) for an incorporation time of 6 hours.
The supernatant is drawn off and the cells are recovered by treatment with trypsin-EDTA, 100 μl/well, for 5 minutes at 37° C. This cell suspension is then recovered in an Eppendorf tube and is washed with twice 500 μl of PBS. The centrifugation at 1300×g for 5 minutes allows recovery of the cell pellets, which may be frozen at −20° C. In order to extract the lipids from the cell pellet, 400 μl of a methanol/dichloromethane/trifluoroacetic acid mixture (50/50/0.1%) is used to resuspend the cells. Next, the cell membranes are destroyed by sonication on a water bath, for 30 minutes. The samples are filtered through a 0.45 μm filtered and then injected onto a C18 HPLC column of 4.6×75 mm, 3 μm with a mobile phase of 5% (H2O+0.1% TFA), 70% methanol, 25% dichloromethane, with a flow rate of 1.5 ml/minute. The radioactivity is measured using a Flo One C625TR machine (Perkin-Elmer).
The inhibitory activity on triglyceride biosynthesis is given by the concentration that inhibits 50% of the activity.

IC50 [1] [µM] | melting point [°C] | Compound
0.051 | 241 | O=C(O)C[C@H]1CC[C@H](c2ccc(C(=O)Nc3nnc(COCC4CCCC4)s3)cc2)CC1 [Compound 40, trans-{4-[4-(5-cyclopentylmethoxymethyl[1,3,4]thiadiazol-2-ylcarbamoyl)phenyl]cyclohexyl}acetic acid]
0.271 |  | O=C(Nc1nnc(Cc2ccccc2)s1)c1ccc(N[C@H]2CC[C@@H](C(=O)O)CC2)cc1 [Compound 68, cis-4-[4-(5-benzyl[1.3.4]thiadiazol-2-ylcarbamoyl)phenylamino]cyclohexanecarboxylic acid]

Compound | IC50 [1] [µM] | melting point [°C]
O=C(Nc1nnc(Cc2cccc(Cl)c2)s1)c1ccc(O[C@H]2CC[C@@H](C(=O)O)CC2)nc1 [Compound 63, cis-4-{5-[5-(3-chlorobenzyl)[1.3.4]thiadiazol-2-ylcarbamoyl]pyridin-2-yloxy}cyclohexanecarboxylic acid] | 0.085 | 
